# Measurements from patent US12077503B2, “Substituted cyclic amides and their use as herbicides” (FMC CORPORATION, priority 2015, dated 2024).
# How the values were obtained:
# Assay in all cases: Test C preemergence
# Type in all cases: in vivo
# [1] = test system: Galium (catchweed bedstraw, Galium aparine); conditions: for Plant response rating, Galium: scale 0 to 100, 0 no effect, 100 complete control
# Method in brief: (§1)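 Preemergence application to seeds in loam/sand soil, or foliar (postemergence) application to plants 2–18 cm tall in peat moss/vermiculite medium; surfactant-containing non-phytotoxic solvent vehicle; greenhouse. Visual injury vs controls at 13–15 d; 0 = no effect, 100 = complete control.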
# [2] = test system: ragweed (common ragweed, Ambrosia elatior); conditions: for Plant response rating, Ragweed: scale 0 to 100, 0 no effect, 100 complete control
# Method in brief: as §1
# [3] = test system: crabgrass, large (large crabgrass, Digitaria sanguinalis); conditions: for Plant response rating, Crabgrass, Large: scale 0 to 100, 0 no effect, 100 complete control
# Method in brief: as §1
# [4] = test system: ryegrass, Italian (Italian ryegrass, Lolium multiflorum); conditions: for Plant response rating, Ryegrass, Italian: scale 0 to 100, 0 no effect, 100 complete control
# Method in brief: as §1
# [5] = test system: waterhemp (common waterhemp, Amaranthus rudis); conditions: for Plant response rating, Waterhemp: scale 0 to 100, 0 no effect, 100 complete control
# Method in brief: as §1
# [6] = test system: wheat (winter wheat, Triticum aestivum); conditions: for Plant response rating, Wheat: scale 0 to 100, 0 no effect, 100 complete control
# Method in brief: as §1
# [7] = test system: oilseed rape (Brassica napus); conditions: for Plant response rating, Oilseed Rape: scale 0 to 100, 0 no effect, 100 complete control
# Method in brief: as §1
# [8] = test system: lambsquarters (Chenopodium album); conditions: for Plant response rating, Lambsquarters: scale 0 to 100, 0 no effect, 100 complete control
# Method in brief: as §1
# [9] = test system: foxtail, giant (giant foxtail, Setaria faberii); conditions: for Plant response rating, Foxtail, Giant: scale 0 to 100, 0 no effect, 100 complete control
# Method in brief: as §1
# [10] = test system: velvetleaf (Abutilon theophrasti); conditions: for Plant response rating, Velvetleaf: scale 0 to 100, 0 no effect, 100 complete control
# Method in brief: as §1
# [11] = test system: pigweed (Amaranthus retroflexus); conditions: for Plant response rating, Pigweed: scale 0 to 100, 0 no effect, 100 complete control
# Method in brief: as §1
# [12] = test system: barnyardgrass (Echinochloa crus-galli); conditions: for Plant response rating, Barnyardgrass: scale 0 to 100, 0 no effect, 100 complete control
# Method in brief: as §1
# [13] = test system: blackgrass (Alopecurus myosuroides); conditions: for Plant response rating, Blackgrass: scale 0 to 100, 0 no effect, 100 complete control
# Method in brief: as §1
# [14] = test system: corn (Zea mays); conditions: for Plant response rating, Corn: scale 0 to 100, 0 no effect, 100 complete control
# Method in brief: as §1
# [15] = test system: morningglory (Ipomoea coccinea); conditions: for Plant response rating, Morningglory: scale 0 to 100, 0 no effect, 100 complete control
# Method in brief: as §1
# [16] = test system: nutsedge, yellow (yellow nutsedge, Cyperus esculentus); conditions: for Plant response rating, Nutsedge, Yellow: scale 0 to 100, 0 no effect, 100 complete control
# Method in brief: as §1
# [17] = test system: soybean (Glycine max); conditions: for Plant response rating, Soybean: scale 0 to 100, 0 no effect, 100 complete control
# Method in brief: as §1
# [18] = test system: johnsongrass (Sorghum halepense); conditions: for Plant response rating, Johnsongrass: scale 0 to 100, 0 no effect, 100 complete control
# Method in brief: as §1
# [19] = 31 g ai/ha, 0 is no effect, 100 is complete control
structure (smiles),measurement,setting,value
Cc1ccc(C2CN(C)C(=O)C2C(=O)Nc2ccccc2S(C)(=O)=O)cc1 (stereo not drawn) [Compound 663],"Plant response rating (scale of 0 to 100), Galium",[1]; [19],90
same,"Plant response rating, Galium",[1]; 62 g ai/ha,90
same,"Plant response rating, Galium",[1]; 125 g ai/ha,85
same,"Plant response rating, Galium",[1]; 250 g ai/ha,90
same,"Plant response rating (scale of 0 to 100), Ragweed",[2]; [19],50
same,"Plant response rating, Ragweed",[2]; 62 g ai/ha,55
same,"Plant response rating, Ragweed",[2]; 125 g ai/ha,70
same,"Plant response rating, Ragweed",[2]; 250 g ai/ha,85
same,"Plant response rating (scale of 0 to 100), Crabgrass, Large",[3]; [19],95
same,"Plant response rating, Crabgrass, Large",[3]; 62 g ai/ha,98
same,"Plant response rating, Crabgrass, Large",[3]; 125 g ai/ha,100
same,"Plant response rating, Crabgrass, Large",[3]; 250 g ai/ha,100
same,"Plant response rating (scale of 0 to 100), Ryegrass, Italian",[4]; [19],10
same,"Plant response rating, Ryegrass, Italian",[4]; 62 g ai/ha,70
same,"Plant response rating, Ryegrass, Italian",[4]; 125 g ai/ha,50
same,"Plant response rating, Ryegrass, Italian",[4]; 250 g ai/ha,75
same,"Plant response rating (scale of 0 to 100), Waterhemp",[5]; [19],50
same,"Plant response rating, Waterhemp",[5]; 62 g ai/ha,60
same,"Plant response rating, Waterhemp",[5]; 125 g ai/ha,85
same,"Plant response rating, Waterhemp",[5]; 250 g ai/ha,90
same,"Plant response rating (scale of 0 to 100), Wheat",[6]; [19],0
same,"Plant response rating, Wheat",[6]; 62 g ai/ha,50
same,"Plant response rating, Wheat",[6]; 125 g ai/ha,55
same,"Plant response rating, Wheat",[6]; 250 g ai/ha,90
same,"Plant response rating (scale of 0 to 100), Oilseed Rape",[7]; [19],30
same,"Plant response rating, Oilseed Rape",[7]; 62 g ai/ha,20
same,"Plant response rating, Oilseed Rape",[7]; 125 g ai/ha,65
same,"Plant response rating, Oilseed Rape",[7]; 250 g ai/ha,80
same,"Plant response rating (scale of 0 to 100), Lambsquarters",[8]; [19],70
same,"Plant response rating, Lambsquarters",[8]; 62 g ai/ha,60
same,"Plant response rating, Lambsquarters",[8]; 125 g ai/ha,65
same,"Plant response rating, Lambsquarters",[8]; 250 g ai/ha,85
same,"Plant response rating (scale of 0 to 100), Foxtail, Giant",[9]; [19],95
same,"Plant response rating, Foxtail, Giant",[9]; 62 g ai/ha,95
same,"Plant response rating, Foxtail, Giant",[9]; 125 g ai/ha,98
same,"Plant response rating, Foxtail, Giant",[9]; 250 g ai/ha,100
same,"Plant response rating (scale of 0 to 100), Velvetleaf",[10]; [19],5
same,"Plant response rating, Velvetleaf",[10]; 62 g ai/ha,15
same,"Plant response rating, Velvetleaf",[10]; 125 g ai/ha,30
same,"Plant response rating, Velvetleaf",[10]; 250 g ai/ha,55
same,"Plant response rating (scale of 0 to 100), Pigweed",[11]; [19],70
same,"Plant response rating, Pigweed",[11]; 62 g ai/ha,60
same,"Plant response rating, Pigweed",[11]; 125 g ai/ha,70
same,"Plant response rating, Pigweed",[11]; 250 g ai/ha,75
same,"Plant response rating (scale of 0 to 100), Barnyardgrass",[12]; [19],95
same,"Plant response rating, Barnyardgrass",[12]; 62 g ai/ha,90
same,"Plant response rating, Barnyardgrass",[12]; 125 g ai/ha,98
same,"Plant response rating, Barnyardgrass",[12]; 250 g ai/ha,100
same,"Plant response rating (scale of 0 to 100), Blackgrass",[13]; [19],20
same,"Plant response rating, Blackgrass",[13]; 62 g ai/ha,60
same,"Plant response rating, Blackgrass",[13]; 125 g ai/ha,85
same,"Plant response rating, Blackgrass",[13]; 250 g ai/ha,95
same,"Plant response rating (scale of 0 to 100), Corn",[14]; [19],0
same,"Plant response rating, Corn",[14]; 62 g ai/ha,10
same,"Plant response rating, Corn",[14]; 125 g ai/ha,20
same,"Plant response rating, Corn",[14]; 250 g ai/ha,60
same,"Plant response rating (scale of 0 to 100), Morningglory",[15]; [19],0
same,"Plant response rating, Morningglory",[15]; 62 g ai/ha,35
same,"Plant response rating, Morningglory",[15]; 125 g ai/ha,30
same,"Plant response rating, Morningglory",[15]; 250 g ai/ha,40
same,"Plant response rating (scale of 0 to 100), Nutsedge, Yellow",[16]; [19],0
same,"Plant response rating, Nutsedge, Yellow",[16]; 62 g ai/ha,0
same,"Plant response rating, Nutsedge, Yellow",[16]; 125 g ai/ha,0
same,"Plant response rating, Nutsedge, Yellow",[16]; 250 g ai/ha,50
same,"Plant response rating (scale of 0 to 100), Soybean",[17]; [19],0
same,"Plant response rating, Soybean",[17]; 62 g ai/ha,10
same,"Plant response rating, Soybean",[17]; 125 g ai/ha,0
same,"Plant response rating, Soybean",[17]; 250 g ai/ha,0
same,"Plant response rating (scale of 0 to 100), Johnsongrass",[18]; [19],0
same,"Plant response rating, Johnsongrass",[18]; 62 g ai/ha,10
same,"Plant response rating, Johnsongrass",[18]; 125 g ai/ha,20
same,"Plant response rating, Johnsongrass",[18]; 250 g ai/ha,40
